According to patent US8124774B2, “Therapeutic ((phenyl)imidazolyl)methylquinolinyl compounds” (Allergan, Inc., priority 2007, dated 2012):

What was measured:
Type in all cases: cell-based
alpha2A receptor = target: T1, alpha2A receptor (Homo sapiens, UniProt P08913); assay: RSAT assay (Receptor Selection and Amplification Technology), alpha2A; details: value in parentheses; ratio of maximal effect to that of standard full agonist brimonidine (UK14304)
T1 construct: expressed in transfected cells; host or cells: NIH-3T3
T1 sequence (P08913 1-465): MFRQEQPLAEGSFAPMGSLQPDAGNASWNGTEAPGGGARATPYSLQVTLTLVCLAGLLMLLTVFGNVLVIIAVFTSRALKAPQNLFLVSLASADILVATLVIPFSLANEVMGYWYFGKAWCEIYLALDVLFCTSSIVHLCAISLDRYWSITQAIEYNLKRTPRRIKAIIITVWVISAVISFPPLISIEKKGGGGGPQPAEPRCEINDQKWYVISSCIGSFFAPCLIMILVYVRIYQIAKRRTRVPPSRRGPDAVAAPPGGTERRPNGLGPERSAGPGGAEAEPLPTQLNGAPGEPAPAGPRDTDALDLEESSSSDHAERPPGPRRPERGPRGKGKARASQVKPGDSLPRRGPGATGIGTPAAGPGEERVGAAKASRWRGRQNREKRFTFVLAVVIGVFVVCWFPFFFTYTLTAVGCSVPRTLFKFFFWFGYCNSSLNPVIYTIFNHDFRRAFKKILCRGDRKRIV
Description: (§1) Receptor Selection and Amplification Technology (RSAT) Assay
(§2) The RSAT assay measures a receptor-mediated loss of contact inhibition that results in selective proliferation of receptor-containing cells in a mixed population of confluent cells. The increase in cell number is assessed with an appropriate transfected marker gene such as β-galactosidase, the activity of which can be easily measured in a 96-well format. Receptors that activate the G protein, Gq, elicit this response. Alpha2 receptors, which normally couple to Gi, activate the RSAT response when coexpressed with a hybrid Gq protein that has a Gi receptor recognition domain, called Gq/i5.
NIH-3T3 cells are plated at a density of 2×10^6 cells in 15 cm dishes and maintained in Dulbecco's modified Eagle's medium supplemented with 10% calf serum. […] After washing with phosphate-buffered saline, β-galactosidase enzyme activity is determined by adding 200 μl of the chromogenic substrate (consisting of 3.5 mM o-nitrophenyl-β-D-galactopyranoside and 0.5% nonidet P-40 in phosphate buffered saline), incubating overnight at 30° C. and measuring optical density at 420 nm. The absorbance is a measure of enzyme activity, which depends on cell number and reflects a receptor-mediated cell proliferation. […]

alpha2B receptor = target: T2, alpha2B receptor (Homo sapiens, UniProt P18089); assay: RSAT assay (Receptor Selection and Amplification Technology), alpha2B; details: for EC50: NIH-3T3 cells cotransfected with receptor and Gq/i5, read-out: Alpha 2B potency EC50; for Alpha 2B intrinsic activity (efficacy): value in parentheses, ratio of maximal effect to that of standard full agonist brimonidine (UK14304)
T2 construct: expressed in transfected cells; host or cells: NIH-3T3
T2 sequence (P18089 1-450): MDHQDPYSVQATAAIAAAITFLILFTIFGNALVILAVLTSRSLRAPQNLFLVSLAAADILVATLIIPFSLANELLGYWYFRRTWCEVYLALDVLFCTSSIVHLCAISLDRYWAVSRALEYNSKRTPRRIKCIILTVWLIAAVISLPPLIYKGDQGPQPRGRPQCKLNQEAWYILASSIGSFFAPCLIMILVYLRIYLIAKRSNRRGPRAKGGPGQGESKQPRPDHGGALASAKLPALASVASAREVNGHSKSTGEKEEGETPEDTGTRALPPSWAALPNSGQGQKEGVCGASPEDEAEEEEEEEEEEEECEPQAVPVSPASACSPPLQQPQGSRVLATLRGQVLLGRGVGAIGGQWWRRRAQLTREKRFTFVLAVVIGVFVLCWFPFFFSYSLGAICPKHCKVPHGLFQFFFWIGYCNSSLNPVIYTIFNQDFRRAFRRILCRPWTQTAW
Description: as §1, §2
(§3) NIH-3T3 cells are plated at a density of 2×10^6 cells in 15 cm dishes and maintained in Dulbecco's modified Eagle's medium supplemented with 10% calf serum. One day later, cells are cotransfected by calcium phosphate precipitation with mammalian expression plasmids encoding p-SV-β-galactosidase (5-10 μg), receptor (1-2 μg) and G protein (1-2 μg). 40 μg salmon sperm DNA may also be included in the transfection mixture. Fresh media is added on the following day and 1-2 days later, cells are harvested and frozen in 50 assay aliquots. Cells are thawed and 100 μl added to 100 μl aliquots of various concentrations of drugs in triplicate in 96-well dishes. Incubations continue 72-96 hr at 37° C. After washing with phosphate-buffered saline, β-galactosidase enzyme activity is determined by adding 200 μl of the chromogenic substrate (consisting of 3.5 mM o-nitrophenyl-β-D-galactopyranoside and 0.5% nonidet P-40 in phosphate buffered saline), incubating overnight at 30° C. and measuring optical density at 420 nm. The absorbance is a measure of enzyme activity, which depends on cell number and reflects a receptor-mediated cell proliferation. The efficacy or intrinsic activity is calculated as a ratio of the maximal effect of the drug to the maximal effect of a standard full agonist for each receptor subtype. Brimonidine, also called UK14304, the chemical structure of which is shown below, is used as the standard agonist for the alpha2A, alpha2B and alpha2c receptors. The EC50 is the concentration at which the drug effect is half of its maximal effect.
(§4) EC50 values are nanomolar. ND stands for “not determinable” at concentrations less than 10 micromolar. IA stands for “intrinsic activity.”

alpha2c receptor = target: T3, alpha2c receptor (Homo sapiens, UniProt P18825); assay: RSAT assay (Receptor Selection and Amplification Technology), alpha2C; details: for EC50: NIH-3T3 cells cotransfected with receptor and Gq/i5, read-out: Alpha 2C potency EC50; for Alpha 2C intrinsic activity (efficacy): value in parentheses, ratio of maximal effect to that of standard full agonist brimonidine (UK14304)
T3 construct: expressed in transfected cells; host or cells: NIH-3T3
T3 sequence (P18825 1-462): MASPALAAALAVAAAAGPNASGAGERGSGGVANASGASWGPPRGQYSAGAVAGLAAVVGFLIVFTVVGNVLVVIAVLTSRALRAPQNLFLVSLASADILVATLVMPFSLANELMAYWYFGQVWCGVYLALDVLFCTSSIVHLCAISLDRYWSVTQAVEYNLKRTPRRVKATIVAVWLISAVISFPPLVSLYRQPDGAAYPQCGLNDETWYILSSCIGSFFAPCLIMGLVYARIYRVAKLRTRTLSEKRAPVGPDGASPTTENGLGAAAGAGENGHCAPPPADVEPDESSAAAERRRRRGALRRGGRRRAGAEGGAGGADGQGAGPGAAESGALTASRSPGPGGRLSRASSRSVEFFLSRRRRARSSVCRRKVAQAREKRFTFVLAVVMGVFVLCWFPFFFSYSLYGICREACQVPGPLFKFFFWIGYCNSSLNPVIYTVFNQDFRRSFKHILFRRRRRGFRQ
Description: as §1, §2, §3, §4

| Structure (SMILES) | Alpha 2A intrinsic activity (efficacy) (alpha2A receptor) | EC50 (alpha2B receptor) | Alpha 2B intrinsic activity (efficacy) (alpha2B receptor) | EC50 (alpha2c receptor) | Alpha 2C intrinsic activity (efficacy) (alpha2c receptor) |
| --- | --- | --- | --- | --- | --- |
| c1ccc(C(c2cnc[nH]2)c2cccc3cccnc23)cc1 (stereo not shown) [8-((1H-imidazol-5-yl)(phenyl)methyl)quinoline] | 0.09 | 23 nM | 1.16 | 832 nM | 0.61 |
| c1ccc(C(c2cnc[nH]2)c2cccc3ncccc23)cc1 (stereo not shown) [5-((1H-imidazol-5-yl)(phenyl)methyl)quinoline] | 0.12 | 319 nM | 0.89 | 50 nM | 0.33 |
